How the values were obtained:
8-OHdG = experiment: Immunohistochemistry, frontal cortex: 8-OHdG; format: in vivo, mice; conditions: for Immunoreactivity of 8-OHdG in the frontal cortex: 30 and 60 mg/kg, vs control
From the text: (§1) Following the acute death or the sacrifice of the animals (after 5-h observation period by dislocation of the spine), brains were taken. These were fixed in 4% buffered formalin and then sampled and incorporated into the paraffin (Leica ASP300 processor, Histoline TEC2900 incorporator; Leica Microsystems Srl, Buccinasco, Milano, Italy). Subsequently, the cut (performed with the Leica HistoCore autocut microtome; Leica Microsystems Srl, Buccinasco, Milano, Italy) was designed to create sections with a thickness of 5 µm for each sample.
(§2) On 5-µm-thick paraffined […] sections, we evaluated the expression of a panel of markers: heat shock proteins (HSP27, HSP70, HSP90), SMAC/DIABLO, NF-kB, iNOS, NOX-2, NT, 8-OHDG.
(§3) We used a detection system composed of a biotinylated secondary antibody and HRP-conjugated streptavidin (4plus HRP Universal Detection, Biocare Medical). 3′-,3Diaminobenzidine (DAB) and H2O2 (Betazoid DAB Chromogen Kit, Biocare Medical, Concord, CA, USA) were used as chromogen/substrate. […] In the pictures (sections of the frontal cortex; Figure 3, Figure 4 and Figure 5) to evaluate the variation in the expression of markers (Smac, NOX2, iNOS, 8-OHdG, NT, HSP27, HSP70, HSP90) following treatments, the change in intensity of brown colour (staining of the immunohistochemical technique) in the control and treated tissue was measured. Quantification of Smac, NOX2, iNOS, 8-OHdG, NT, HSP27, HSP70 and HSP90 positive-stained areas was performed by the ImageJ software (imagej.nih.gov/ij/ Accessed date 12 May 2020). […] Positivity was expressed as an extension of the stained analysed area.
(§4) Sweating and salivation were expressed as frequency (e.g., % of animals that developed symptoms); psychomotor agitation was expressed as frequency (% of animals) and duration (total time in mins). Core temperature values were expressed as the difference between control temperature (before injection) and temperature following drug administration (Δ°C). Aggressiveness was expressed as frequency (% of animals which become aggressive) and score (number of bites). […]

3-nitrotyrosine (NT) = experiment: Immunohistochemistry, frontal cortex: NT; format: in vivo, mice; conditions: vs control
From the text: as §1, §2
(§5) We used a detection system composed of a biotinylated secondary antibody and HRP-conjugated streptavidin (4plus HRP Universal Detection, Biocare Medical). 3′-,3Diaminobenzidine (DAB) and H2O2 (Betazoid DAB Chromogen Kit, Biocare Medical, Concord, CA, USA) were used as chromogen/substrate. The subsequent counterstaining with haematoxylin–eosin allowed the visualization of cell morphology and nuclei. Once this procedure was completed, the slides were mounted and observed under optical microscope. In the pictures (sections of the frontal cortex; Figure 3, Figure 4 and Figure 5) to evaluate the variation in the expression of markers (Smac, NOX2, iNOS, 8-OHdG, NT, HSP27, HSP70, HSP90) following treatments, the change in intensity of brown colour (staining of the immunohistochemical technique) in the control and treated tissue was measured. Quantification of Smac, NOX2, iNOS, 8-OHdG, NT, HSP27, HSP70 and HSP90 positive-stained areas was performed by the ImageJ software (imagej.nih.gov/ij/ Accessed date 12 May 2020). One image for each animal of the different experimental groups was processed. Positivity was expressed as an extension of the stained analysed area.
Sweating and salivation were expressed as frequency (e.g., % of animals that developed symptoms); psychomotor agitation was expressed as frequency (% of animals) and duration (total time in mins). Core temperature values were expressed as the difference between control temperature (before injection) and temperature following drug administration (Δ°C). Aggressiveness was expressed as frequency (% of animals which become aggressive) and score (number of bites). Convulsions were expressed as frequency (% of animals that developed seizure), episodes (e.g., number of seizure events), latency of first episode (sec.) and duration of each episode (sec.). Lethality was expressed as frequency (% of animals that died during the observation period (5 h) or during the following 24 h). The statistical analysis of the effects of the individual substances in different concentrations were performed using a one-way ANOVA followed by a Bonferroni test for multiple comparisons. A Student’s t-test was used to determine statistical significance (p < 0.05) between two groups. Regarding immunohistochemical analysis, positivity was expressed as the extension of stained analysed area. Results were expressed as means ± mean standard error (SEM). Data were analysed by one-way analysis of variance (ANOVA), followed by Tukey’s post-hoc test. For all tests, a p value of <0.05 was considered statistically significant. All statistical analyses were performed using GraphPad Prism 8 software for Windows (La Jolla, CA, USA).

Smac/DIABLO = experiment: Immunohistochemistry, frontal cortex: Smac/DIABLO; format: in vivo, mice
From the text: as §1, §2, §3, §4

HSP27 = experiment: Immunohistochemistry, frontal cortex: HSP27; format: in vivo, mice
From the text: as §1, §2
as §5, with “One image for each animal of the different experimental groups was processed.” left out
Sweating and salivation were expressed as frequency (e.g., % of animals that developed symptoms); psychomotor agitation was expressed as frequency (% of animals) and duration (total time in mins). Core temperature values were expressed as the difference between control temperature (before injection) and temperature following drug administration (Δ°C). Aggressiveness was expressed as frequency (% of animals which become aggressive) and score (number of bites). Convulsions were expressed as frequency (% of animals that developed seizure), episodes (e.g., number of seizure events), latency of first episode (sec.) and duration of each episode (sec.). Lethality was expressed as frequency (% of animals that died during the observation period (5 h) or during the following 24 h). […] Regarding immunohistochemical analysis, positivity was expressed as the extension of stained analysed area. Results were expressed as means ± mean standard error (SEM). […]

HSP90 = experiment: Immunohistochemistry, frontal cortex: HSP90; format: in vivo, mice; conditions: vs control
From the text: as §1, §2
We used a detection system composed of a biotinylated secondary antibody and HRP-conjugated streptavidin (4plus HRP Universal Detection, Biocare Medical). […] In the pictures (sections of the frontal cortex; Figure 3, Figure 4 and Figure 5) to evaluate the variation in the expression of markers (Smac, NOX2, iNOS, 8-OHdG, NT, HSP27, HSP70, HSP90) following treatments, the change in intensity of brown colour (staining of the immunohistochemical technique) in the control and treated tissue was measured. Quantification of Smac, NOX2, iNOS, 8-OHdG, NT, HSP27, HSP70 and HSP90 positive-stained areas was performed by the ImageJ software (imagej.nih.gov/ij/ Accessed date 12 May 2020). […]

[1] = Excretion studies on urine samples (LC-MS/MS); format: in vivo, mice
Description: To study the possible metabolic interaction between cis and trans isomers, we chose to evaluate urinary excretion and metabolic profile of 4,4′-DMAR, as this allowed us to study and correlate physiological and neuro-behavioural responses in the same individual. For the in vivo studies, three different groups of mice were selected. To the first group, a dose of 10 mg/kg of cis-4,4′-DMAR was administered. To the second group, a dose of 10 mg/kg of both cis and trans-4,4′-DMAR was administered. The third group was selected for the collection of urine blank samples. Urine samples were collected in the range of 0–6 h after 4,4′-DMAR or vehicle were intraperitoneally injected.
Urine samples were treated and analysed through a protocol already used by our group for the analysis of the excretion of stimulant drugs in mice. Briefly, our protocol allowed the conversion of conjugated metabolites (i.e., sulfo- and glucorono-conjugates) to phase I metabolites after two hydrolysis steps. […] The residue was reconstituted with 50 μL of mobile phase and analysed with a targeted LC-MS/MS technique. In details, samples were analysed using an Agilent 1200 series HPLC instrument equipped with a SUPELCO Discovery C18 column (15 cm × 2.1 mm × 5 µm) coupled with an API4000 QqQ mass spectrometer (Sciex, 500 Old Connecticut Path, Framingham, MA, USA). […]

[2] = recent pharmacokinetic study; cited from earlier work
[3] = 30 and 60 mg/kg, vs control, listed as (±)cis

Row | Compound | Immunoreactivity of 8-OHdG in the frontal cortex (8-OHdG) | Immunoreactivity of 8-OHdG in the frontal cortex (8-OHdG; listed as (±)cis) | Immunoreactivity of 3-nitrotyrosine (NT) in the frontal cortex (3-nitrotyrosine (NT); 10 mg/kg) | Immunoreactivity of 3-nitrotyrosine (NT) in the frontal cortex (3-nitrotyrosine (NT); 30 mg/kg) | Immunoreactivity of 3-nitrotyrosine (NT) in the frontal cortex (3-nitrotyrosine (NT); 30 mg/kg, listed as (±)cis) | Immunoreactivity of 3-nitrotyrosine (NT) in the frontal cortex (3-nitrotyrosine (NT); 60 mg/kg) | Immunoreactivity of Smac/DIABLO in the frontal cortex (Smac/DIABLO; 30 and 60 mg/kg, vs control) | Immunoreactivity of Smac/DIABLO in the frontal cortex (Smac/DIABLO; [3]) | Immunoreactivity of HSP27 in the frontal cortex (HSP27; 10 mg/kg alone) | Immunoreactivity of HSP27 in the frontal cortex (HSP27; 30 and 60 mg/kg, vs control) | Immunoreactivity of HSP27 in the frontal cortex (HSP27; [3]) | Immunoreactivity of HSP90 in the frontal cortex (HSP90; 10 and 30 mg/kg) | Urinary excretion of the parent compound (normalised to the sum of 4,4′-DMAR and its metabolites, Figure 7B) ([1]; co-administered with (±)trans-4,4′-DMAR 10 mg/kg, vs cis alone) | Metabolism and excretion in the mouse urine [2] | Expression of 8-OHdG in the frontal cortex (8-OHdG; 30 mg/kg alone) | Immunoreactivity of Smac/DIABLO in the frontal cortex (Smac/DIABLO; 30 mg/kg alone) | Immunoreactivity of HSP27 in the frontal cortex (HSP27; 30 mg/kg alone) | Expression of HSP90 in the frontal cortex (HSP90; 30 mg/kg alone) | Phase I/II metabolism ([1]; mice urine)
1 | Cc1ccc(C2OC(N)=NC2C)cc1 (stereo not drawn) [cis-4,4’-DMAR, 4-methyl-5-(4-methylphenyl)-4,5-dihydrooxazol-2-amine] | increased | overexpressed | reduced | increased | statistically significant increase | did not affect | increased | significant increase | ineffective | increased | overexpressed | reduced | increase | metabolised and excreted | – | – | – | – | –
2 | Cc1ccc(C2OC(N)=NC2C)cc1 (stereo not drawn) [trans-4,4’-DMAR, 4-methyl-5-(4-methylphenyl)-4,5-dihydrooxazol-2-amine] | – | – | – | ineffective | – | – | – | – | – | – | – | – | – | not metabolised | ineffective | ineffective | ineffective | reduced | did not exhibit

— article PMC8395767, “Worsening of the Toxic Effects of (±)Cis-4,4′-DMAR Following Its Co-Administration with (±)Trans-4,4′-DMAR: Neuro-Behavioural, Physiological, Immunohistochemical and Metabolic Studies in Mice” (International Journal of Molecular Sciences, 2021)
